The values that follow come from ChEMBL document CHEMBL5724914, “Linking interpersonal differences in gut microbiota composition and drug biotransformation activity” (2024).

The nature of data set [1]: The drug is tested on Z-007 corresponding to rat gut metagenome with ENA study accession number: PRJEB37062 and ENA sample accession number: ERS12561807 for biotransformation under anaerobic condition. The drug concentrations were measured over 9 timepoints collected between 0 and 24 hours of incubation by liquid-chromatography-coupled mass spectrometry (LC–MS). Particulars: 2 µM.

Data set [2] is described as follows: The drug is tested on WLS-350 corresponding to human gut metagenome with ENA study accession number: PRJEB37062 and ENA sample accession number: ERS12561789 for biotransformation under anaerobic condition. The drug concentrations were measured over 9 timepoints collected between 0 and 24 hours of incubation by liquid-chromatography-coupled mass spectrometry (LC–MS). Particulars: 2 µM.

For data set [3] the following is noted: human gut metagenome, 24 h, 2 µM.
The nature of data set [4]: The drug is tested on Z-021 corresponding to metagenome with ENA study accession number: PRJEB37062 and ENA sample accession number: ERS12561820 for biotransformation under anaerobic condition. The drug concentrations were measured over 9 timepoints collected between 0 and 24 hours of incubation by liquid-chromatography-coupled mass spectrometry (LC–MS). Particulars: 2 µM.

For data set [5] the following is noted: human gut metagenome, 24 h, 2 µM. This is another data set of the same source.
Data set [6] can be described thus: The drug is tested on Z-023 corresponding to metagenome with ENA study accession number: PRJEB37062 and ENA sample accession number: ERS12561822 for biotransformation under anaerobic condition. The drug concentrations were measured over 9 timepoints collected between 0 and 24 hours of incubation by liquid-chromatography-coupled mass spectrometry (LC–MS). The note with it: 2 µM.

For data set [7] the following is noted: human gut metagenome, 24 h, 2 µM. The source holds these as a separate data set.
The conditions of data set [8]: human gut metagenome, 24 h, 2 µM. The source holds these as a separate data set.
For data set [9] the following is noted: human gut metagenome, 24 h, 2 µM. The source holds these as a separate data set.
A short description of data set [10]: The drug is tested on Z-027 corresponding to metagenome with ENA study accession number: PRJEB37062 and ENA sample accession number: ERS12561826 for biotransformation under anaerobic condition. The drug concentrations were measured over 9 timepoints collected between 0 and 24 hours of incubation by liquid-chromatography-coupled mass spectrometry (LC–MS). Particulars: 2 µM.

For data set [11] the following is noted: human gut metagenome, 24 h, 2 µM. The source holds these as a separate data set.
Data set [12] is described as follows: The drug is tested on Z-010 corresponding to metagenome with ENA study accession number: PRJEB37062 and ENA sample accession number: ERS12561810 for biotransformation under anaerobic condition. The drug concentrations were measured over 9 timepoints collected between 0 and 24 hours of incubation by liquid-chromatography-coupled mass spectrometry (LC–MS). The note with it: 2 µM.

Data set [13] can be described thus: The drug is tested on WLS-007 corresponding to human gut metagenome with ENA study accession number: PRJEB37062 and ENA sample accession number: ERS12561742 for biotransformation under anaerobic condition. The drug concentrations were measured over 9 timepoints collected between 0 and 24 hours of incubation by liquid-chromatography-coupled mass spectrometry (LC–MS). The note with it: 2 µM.

For data set [14] the following is noted: human gut metagenome, 24 h, 2 µM. The source holds these as a separate data set.
Data set [15] is described as follows: The drug is tested on Z-022 corresponding to mouse gut metagenome with ENA study accession number: PRJEB37062 and ENA sample accession number: ERS12561821 for biotransformation under anaerobic condition. The drug concentrations were measured over 9 timepoints collected between 0 and 24 hours of incubation by liquid-chromatography-coupled mass spectrometry (LC–MS). Particulars: 2 µM.

For data set [16] the following is noted: human gut metagenome, 24 h, 2 µM. The source holds these as a separate data set.
The conditions of data set [17]: human gut metagenome, 24 h, 2 µM. This is another data set of the same source.
For data set [18] the following is noted: human gut metagenome, 24 h, 2 µM. The source holds these as a separate data set.
The conditions of data set [19]: human gut metagenome, 24 h, 2 µM. This is another data set of the same source.
For data set [20] the following is noted: human gut metagenome, 24 h, 2 µM. This is another data set of the same source.

Molecules are shown by their SMILES.
Note: call rule not given here.

Regarding `CCCc1nc2c(C)cc(-c3nc4ccccc4n3C)cc2n1Cc1ccc(-c2ccccc2C(=O)O)cc1`, the “Bacterial Biotransformation” value is “Compound metabolized” in data set [1]; “Compound metabolized” in data set [2]; “Compound NOT metabolized” in data set [3]; “Compound metabolized” in data set [4]; “Compound NOT metabolized” in [5]; “Compound metabolized” in [6]. Also, the “Bacterial Biotransformation” value in [7], in [8], in data set [9], in [10], in data set [11] and in [12] was “Compound metabolized” in each case. In addition, the “Bacterial Biotransformation” value in data set [13], in [14], in [15], in data set [16], in data set [17] and in [18] was “Compound metabolized” throughout. The “Bacterial Biotransformation” value in data set [19] and in data set [20] was “Compound metabolized” in each case.

With `CCCCC(=O)N(Cc1ccc(-c2ccccc2-c2nnn[nH]2)cc1)[C@H](C(=O)O)C(C)C`, the “Bacterial Biotransformation” value in [1] is given as “Compound NOT metabolized”; in data set [2] it was “Compound metabolized”; in data set [3], “Compound NOT metabolized”; in data set [4] it was “Compound metabolized”; in data set [5], “Compound metabolized”; in data set [6], “Compound NOT metabolized”. The “Bacterial Biotransformation” value in [7] is “Compound metabolized”; in data set [8], “Compound metabolized”; in data set [9], “Compound metabolized”; in [10], “Compound NOT metabolized”; in data set [11], “Compound metabolized”; in data set [12], “Compound NOT metabolized”. In addition, the “Bacterial Biotransformation” value in data set [13] is listed as “Compound metabolized”; in data set [14], “Compound metabolized”; in data set [15], “Compound NOT metabolized”; in data set [16] it was “Compound metabolized”; in data set [17], “Compound metabolized”; in data set [18] it was “Compound metabolized”. The “Bacterial Biotransformation” value in data set [19] and in data set [20] was “Compound metabolized” in each case.

As for `O=c1[nH]c2ccccc2n1CCCN1CCC(n2c(=O)[nH]c3cc(Cl)ccc32)CC1` [DOMPERIDONE], the “Bacterial Biotransformation” value in data set [1], in [2], in [4], in data set [6], in [7] and in [9] was “Compound NOT metabolized” in each case. Also, the “Bacterial Biotransformation” value in data set [10], in data set [11], in data set [12], in [13], in [14] and in data set [15] was “Compound NOT metabolized” throughout. For the same molecule, the “Bacterial Biotransformation” value in [16], in data set [17], in data set [18] and in [20] was “Compound NOT metabolized” each time.

Regarding `C=CCN1CC[C@]23c4c5ccc(O)c4O[C@H]2C(=O)CC[C@@]3(O)[C@H]1C5` [NALOXONE], the “Bacterial Biotransformation” value in [1], in [2], in [3], in [4], in data set [5] and in data set [6] was “Compound NOT metabolized” each time. In addition, the “Bacterial Biotransformation” value in data set [7], in data set [8], in data set [9], in data set [10], in [11] and in [12] was “Compound NOT metabolized” in each case. The “Bacterial Biotransformation” value in data set [14] is “Compound metabolized”; in data set [15], “Compound NOT metabolized”; in [16], “Compound NOT metabolized”; in [17] it was “Compound NOT metabolized”; in [18], “Compound metabolized”; in data set [19] it was “Compound NOT metabolized”. In addition, in data set [20], the “Bacterial Biotransformation” value was “Compound NOT metabolized”.

As for `NC(=O)N1c2ccccc2CC(=O)c2ccccc21` [OXCARBAZEPINE], the “Bacterial Biotransformation” value in data set [1] is reported as “Compound NOT metabolized”; in data set [2], “Compound metabolized”; in data set [3], “Compound NOT metabolized”; in [4], “Compound NOT metabolized”; in data set [5], “Compound NOT metabolized”; in data set [6], “Compound metabolized”. Further, the “Bacterial Biotransformation” value is recorded as “Compound NOT metabolized” in data set [7]; “Compound NOT metabolized” in [8]; “Compound metabolized” in [9]; “Compound NOT metabolized” in [10]; “Compound NOT metabolized” in data set [11]; “Compound metabolized” in [12]. Besides, the “Bacterial Biotransformation” value in data set [14] is recorded as “Compound metabolized”; in [15], “Compound metabolized”; in data set [16], “Compound NOT metabolized”; in data set [17] it was “Compound NOT metabolized”; in data set [18], “Compound NOT metabolized”; in data set [19], “Compound NOT metabolized”. In addition, the “Bacterial Biotransformation” value in data set [20] is “Compound metabolized”.

Regarding `COC(=O)[C@H]1[C@H]2C[C@@H]3c4[nH]c5cc(OC)ccc5c4CCN3C[C@H]2C[C@@H](OC(=O)c2cc(OC)c(OC)c(OC)c2)[C@@H]1OC` [RESERPINE], the “Bacterial Biotransformation” value was “Compound NOT metabolized” in data set [1]; “Compound NOT metabolized” in data set [2]; “Compound NOT metabolized” in data set [3]; “Compound metabolized” in [4]; “Compound NOT metabolized” in [5]; “Compound metabolized” in data set [6]. Also, the “Bacterial Biotransformation” value is “Compound metabolized” in data set [8]; “Compound metabolized” in data set [9]; “Compound NOT metabolized” in [10]; “Compound NOT metabolized” in [11]; “Compound NOT metabolized” in data set [12]; “Compound NOT metabolized” in data set [13]. Further, the “Bacterial Biotransformation” value in data set [14] is given as “Compound metabolized”; in [15], “Compound metabolized”; in data set [16], “Compound metabolized”; in data set [17], “Compound NOT metabolized”; in data set [18] it was “Compound metabolized”; in [19] it was “Compound NOT metabolized”. In addition, the “Bacterial Biotransformation” value in data set [20] is listed as “Compound metabolized”.
